The test system of this assay is HCC827 cells (EGFR Exon19 del, non-small cell lung cancer cells). In words: Cell viability assay (WST/CCK8), HCC827 cells. The format is cell-based. The settings on record: Homo sapiens, HCC827, 72 h, Table 3, poziotinib-based compounds; HCC827 (Exon19 Del); 72 hours; WST (CCK8); read-out: IC50 (half inhibitory concentration). The text has this:
The cell lines with abnormal EGFR expression used are as follows: • HCC827 cells (EGFR Exon19 del, non-small cell lung cancer cells); • PC9 cells (EGFR Exon 19 del, non-small cell lung cancer cells); • PC9BracA1 (EGFR Exon 19 del+T790M, non-small cell lung cancer cells) • H1975 (EGFR Exon T790M+L858R mutation, non-small cell lung cancer cell line) • BT474 cells (HER2 positive breast cancer cells)
All of the half inhibitory concentrations (IC50) of these compounds of the present invention were determined with WST reagent from Fuyuan Biotec Company. The specific experiment procedures are as follows: Cancer cells were planted in 96-well-plate at the density of 3 000 cells per well with 100 μL RPMI1640 completed culture medium. In the next day, compounds with indicated concentrations were added to the cells, DMSO was used as the negative control and the EGFR TKIs were used to treat cells as the positive groups. After 72 hours drug treatment, cell viability was measured by using the WST reagent following the instructions.
The cells were treated with the gradient concentration of these compounds (the maximum concentration: 10 μM; 3-fold dilution ratio, 10 concentration gradients) for 72 hours and then incubated with the WST (CCK8) reagent to determine the cell viability.
Regarding `COc1cc2ncnc(Nc3ccc(Cl)c(Cl)c3F)c2cc1OC1CCN(C(=O)CCCCCSc2cccc3c2C(=O)N(C2CCC(=O)NC2=O)C3=O)CC1` (stereo not shown) [SIAIS249018, 4-((6-(4-((4-((3,4-dichloro-2-fluorophenyl)amino)-7-methoxyquinazolin-6-yl)oxy)piperidin-1-yl)-6-oxohexyl)thio)-2-(2,6-dioxopiperidin-3-yl)isoindoline-1,3-dione], the IC50 was found to be 13.3 nM. The figure for `COc1cc2ncnc(Nc3ccc(Cl)c(Cl)c3F)c2cc1OC1CCN(C(=O)CCCCCCSc2cccc3c2C(=O)N(C2CCC(=O)NC2=O)C3=O)CC1` (stereo not shown) [SIAIS249019, 4-((7-(4-((4-((3,4-dichloro-2-fluorophenyl)amino)-7-methoxyquinazolin-6-yl)oxy)piperidin-1-yl)-7-oxoheptyl)thio)-2-(2,6-dioxopiperidin-3-yl)isoindoline-1,3-dione] is 38 nM; for `COc1cc2ncnc(Nc3ccc(Cl)c(Cl)c3F)c2cc1OC1CCN(C(=O)CCC(=O)N[C@H](C(=O)N2C[C@H](O)C[C@H]2C(=O)NCc2ccc(-c3scnc3C)cc2)C(C)(C)C)CC1` [SIAIS249020, (2S,4R)-1-((S)-2-(4-(4-((4-((3,4-dichloro-2-fluorophenyl)amino)-7-methoxyquinazolin-6-yl)oxy)piperidin-1-yl)-4-oxobutanamido)-3,3-dimethylbutanoyl)-4-hydroxy-N-(4-(4-methylthiazol-5-yl)benzyl)pyrrolidine-2-carboxamide] it is 75.5 nM.

On to `COc1cc2ncnc(Nc3ccc(Cl)c(Cl)c3F)c2cc1OC1CCN(C(=O)CCCCC(=O)N[C@H](C(=O)N2C[C@H](O)C[C@H]2C(=O)NCc2ccc(-c3scnc3C)cc2)C(C)(C)C)CC1` [SIAIS249021, (2S,4R)-1-((S)-2-(6-(4-((4-((3,4-dichloro-2-fluorophenyl)amino)-7-methoxyquinazolin-6-yl)oxy)piperidin-1-yl)-6-oxohexanamido)-3,3-dimethylbutanoyl)-4-hydroxy-N-(4-(4-methylthiazol-5-yl)benzyl)pyrrolidine-2-carboxamide], for which the IC50 stood at 75.4 nM. The figure for `COc1cc2ncnc(Nc3ccc(Cl)c(Cl)c3F)c2cc1OC1CCN(C(=O)CCCCCCC(=O)N[C@H](C(=O)N2C[C@H](O)C[C@H]2C(=O)NCc2ccc(-c3scnc3C)cc2)C(C)(C)C)CC1` [SIAIS249022, (2S,4R)-1-((S)-2-(8-(4-((4-((3,4-dichloro-2-fluorophenyl)amino)-7-methoxyquinazolin-6-yl)oxy)piperidin-1-yl)-8-oxooctanamido)-3,3-dimethylbutanoyl)-4-hydroxy-N-(4-(4-methylthiazol-5-yl)benzyl)pyrrolidine-2-carboxamide] is 40 nM; for `COc1cc2ncnc(Nc3ccc(Cl)c(Cl)c3F)c2cc1OC1CCN(C(=O)CCCCCCCCC(=O)N[C@H](C(=O)N2C[C@H](O)C[C@H]2C(=O)NCc2ccc(-c3scnc3C)cc2)C(C)(C)C)CC1` [SIAIS249023, (2S,4R)-1-((S)-2-(10-(4-((4-((3,4-dichloro-2-fluorophenyl)amino)-7-methoxyquinazolin-6-yl)oxy)piperidin-1-yl)-10-oxodecanamido)-3,3-dimethylbutanoyl)-4-hydroxy-N-(4-(4-methylthiazol-5-yl)benzyl)pyrrolidine-2-carboxamide] it is 49 nM; for `COc1cc2ncnc(Nc3ccc(Cl)c(Cl)c3F)c2cc1OC1CCN(C(=O)COCCOCC(=O)N[C@H](C(=O)N2C[C@H](O)C[C@H]2C(=O)NCc2ccc(-c3scnc3C)cc2)C(C)(C)C)CC1` [SIAIS249024, (2S,4R)-1-((S)-2-(2-(2-(2-(4-((4-((3,4-dichloro-2-fluorophenyl)amino)-7-methoxyquinazolin-6-yl)oxy)piperidin-1-yl)-2-oxoethoxy)ethoxy)acetamido)-3,3-dimethylbutanoyl)-4-hydroxy-N-(4-(4-methylthiazol-5-yl)benzyl)pyrrolidine-2-carboxamide] it is 174 nM. Turning to `COc1cc2ncnc(Nc3ccc(Cl)c(Cl)c3F)c2cc1OC1CCN(C(=O)CCOCCOCCC(=O)N[C@H](C(=O)N2C[C@H](O)C[C@H]2C(=O)NCc2ccc(-c3scnc3C)cc2)C(C)(C)C)CC1` [SIAIS249025, (2S,4R)-1-((S)-2-(3-(2-(3-(4-((4-((3,4-dichloro-2-fluorophenyl)amino)-7-methoxyquinazolin-6-yl)oxy)piperidin-1-yl)-3-oxopropoxy)ethoxy)propanamido)-3,3-dimethylbutanoyl)-4-hydroxy-N-(4-(4-methylthiazol-5-yl)benzyl)pyrrolidine-2-carboxamide], the IC50 was found to be 158 nM. On to `COc1cc2ncnc(Nc3ccc(Cl)c(Cl)c3F)c2cc1OC1CCN(C(=O)CCOCCOCCOCCC(=O)N[C@H](C(=O)N2C[C@H](O)C[C@H]2C(=O)NCc2ccc(-c3scnc3C)cc2)C(C)(C)C)CC1` [SIAIS249026, (2S,4R)-1-((S)-2-(tert-butyl)-16-(4-((4-((3,4-dichloro-2-fluorophenyl)amino)-7-methoxyquinazolin-6-yl)oxy)piperidin-1-yl)-4,16-dioxo-7,10,13-trioxa-3-azahexadecan-1-oyl)-4-hydroxy-N-(4-(4-methylthiazol-5-yl)benzyl)pyrrolidine-2-carboxamide], for which the IC50 is 266 nM.

Consider `COc1cc2ncnc(Nc3ccc(Cl)c(Cl)c3F)c2cc1OC1CCN(C(=O)CCOCCOCCOCCOCCC(=O)N[C@H](C(=O)N2C[C@H](O)C[C@H]2C(=O)NCc2ccc(-c3scnc3C)cc2)C(C)(C)C)CC1` [SIAIS249027, (2S,4R)-1-((S)-2-(tert-butyl)-19-(4-((4-((3,4-dichloro-2-fluorophenyl)amino)-7-methoxyquinazolin-6-yl)oxy)piperidin-1-yl)-4,19-dioxo-7,10,13,16-tetraoxa-3-azanonadecan-1-oyl)-4-hydroxy-N-(4-(4-methylthiazol-5-yl)benzyl)pyrrolidine-2-carboxamide], for which the IC50 turned out to be 400 nM. Then `COc1cc2ncnc(Nc3ccc(Cl)c(Cl)c3F)c2cc1OC1CCN(C(=O)CCOCCOCCOCCOCCOCCC(=O)N[C@H](C(=O)N2C[C@H](O)C[C@H]2C(=O)NCc2ccc(-c3scnc3C)cc2)C(C)(C)C)CC1` [SIAIS249028, (2S,4R)-1-((S)-2-(tert-butyl)-22-(4-((4-((3,4-dichloro-2-fluorophenyl)amino)-7-methoxyquinazolin-6-yl)oxy)piperidin-1-yl)-4,22-dioxo-7,10,13,16,19-pentaoxa-3-azadocosan-1-oyl)-4-hydroxy-N-(4-(4-methylthiazol-5-yl)benzyl)pyrrolidine-2-carboxamide], with 240 nM; and `COc1cc2ncnc(Nc3ccc(Cl)c(Cl)c3F)c2cc1OC1CCN(C(=O)CCOCCNc2cccc3c2C(=O)N(C2CCC(=O)NC2=O)C3=O)CC1` (stereo not shown) [SIAIS249029, 4-((2-(3-(4-((4-((3,4-dichloro-2-fluorophenyl)amino)-7-methoxyquinazolin-6-yl)oxy)piperidin-1-yl)-3-oxopropoxy)ethyl)amino)-2-(2,6-dioxopiperidin-3-yl)isoindoline-1,3-dione], with 80 nM. With `COc1cc2ncnc(Nc3ccc(Cl)c(Cl)c3F)c2cc1OC1CCN(C(=O)CCOCCOCCNc2cccc3c2C(=O)N(C2CCC(=O)NC2=O)C3=O)CC1` (stereo not shown) [SIAIS249030, 4-((2-(2-(3-(4-((4-((3,4-dichloro-2-fluorophenyl)amino)-7-methoxyquinazolin-6-yl)oxy)piperidin-1-yl)-3-oxopropoxy)ethoxy)ethyl)amino)-2-(2,6-dioxopiperidin-3-yl)isoindoline-1,3-dione], the IC50 is 6.3 nM.

These data come from patent US12564638B2 (SHANGHAITECH UNIVERSITY, priority 2019, dated 2026).
